Experimental data taken from patent publication US11000033B2, “Ketone or oxime compound, and herbicide” (NISSAN CHEMICAL CORPORATION, priority 2014, dated 2021).

How the values were obtained:
Assay type in all cases: in vivo
[1] = test system: Echinochloa oryzacola Vasing.; assay: Test Example 1: herbicidal activity, application before weed generation in submerged conditions (symbol A); settings: application herbicide amount 320 g/ha
Outline: (§1)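 Pre-emergence, paddy conditions: emulsifiable formulation diluted in water, dosed onto floodwater (4 cm depth) on sowing day. Alluvial soil; weeds sown mixed; rice transplanted at 2.5-leaf stage. Greenhouse 25–30 °C, 3 wk. Score 0–5 (5 = ≥90% kill, 0 = ≤5%).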

Scirpus juncoides = assay: Test Example 1: herbicidal activity, application before weed generation in submerged conditions (symbol B); settings: application herbicide amount 320 g/ha
Outline: as §1

[2] = test system: Echinochloa crus-galli var. crus-galli; assay: Test Example 3: herbicidal effect by foliage application, Wagner pot (symbol H); settings: application herbicide amount 320 g/ha
Outline: (§2)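 Foliar spray of water-diluted emulsion formulation at a predetermined herbicide amount onto 14-day-old plants in flooded alluvial soil (water depth 0.1–0.5 cm), greenhouse 25–30 °C; rice sown alongside. Scored 3 wk post-application on set criteria.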

Cyperus difformis = assay: Test Example 3: herbicidal effect by foliage application, Wagner pot (symbol E); settings: application herbicide amount 320 g/ha
Outline: as §2

Setaria viridis = assay: Test Example 4: herbicidal effect by soil treatment (symbol G); settings: application herbicide amount 320 g/ha
Outline: (§3)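 Seeds were sown in sterilized diluvial soil, covered with about 1.5 cm of soil, and the soil surface was sprayed with a water-diluted emulsion of the compound at a predetermined rate. Plants grew in a greenhouse at 25° C. to 30° C.; effects were scored visually 3 weeks after application.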

Alopecurus myosuroides [3] = assay: Test Example 4: herbicidal effect by soil treatment (symbol J); settings: application herbicide amount 320 g/ha
Outline: as §3

Apera spica-venti [4] = assay: Test Example 4: herbicidal effect by soil treatment (symbol L); settings: application herbicide amount 320 g/ha
Outline: as §3

Galium spurium = assay: Test Example 4: herbicidal effect by soil treatment (symbol Q); settings: application herbicide amount 320 g/ha
Outline: as §3

wheat = assay: Test Example 4: effect on crop by soil treatment (symbol e); settings: application herbicide amount 320 g/ha
Outline: (§4)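 Plants are raised in a greenhouse (25° C. to 30° C.) from spot-sown seed, which sits under about 1.5 cm of sterilized diluvial soil in a box shared with weed species.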

rapeseed [5] = assay: Test Example 4: effect on crop by soil treatment (symbol g); settings: application herbicide amount 320 g/ha
Outline: as §4

Digitaria ciliaris = assay: Test Example 5: herbicidal effect by foliage application, plastic box (symbol F); settings: 320 g/ha, 3 weeks after application
Outline: (§5)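 Emulsion formulation, diluted with water to the intended rate, was applied uniformly to leaves by small sprayer. Recipients were 14-day greenhouse-grown seedlings (25° C. to 30° C.). Assessment followed at 3 weeks.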

Alopecurus myosuroides [6] = assay: Test Example 5: herbicidal effect by foliage application, plastic box (symbol J); settings: 320 g/ha, 3 weeks after application
Outline: as §5

Apera spica-venti [7] = assay: Test Example 5: herbicidal effect by foliage application, plastic box (symbol L); settings: 320 g/ha, 3 weeks after application
Outline: as §5

Abutilon theophrasti = assay: Test Example 5: herbicidal effect by foliage application, plastic box (symbol M); settings: 320 g/ha, 3 weeks after application
Outline: as §5

Amaranthus retroflexus = assay: Test Example 5: herbicidal effect by foliage application, plastic box (symbol N); settings: 320 g/ha, 3 weeks after application
Outline: as §5

Stellaria media = assay: Test Example 5: herbicidal effect by foliage application, plastic box (symbol P); settings: 320 g/ha, 3 weeks after application
Outline: as §5

beet = assay: Test Example 5: effect on crop by foliage application, plastic box (symbol f); settings: 320 g/ha, 3 weeks after application
Outline: (§6)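 Sterilized diluvial soil, plastic box (21 × 13 × 7 cm); spot sowing, ~1.5 cm soil cover; greenhouse 25–30° C.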

rapeseed [8] = assay: Test Example 5: effect on crop by foliage application, plastic box (symbol g); settings: 320 g/ha, 3 weeks after application
Outline: as §6

SMILES	Herbicidal effect grade, A: Echinochloa oryzacola Vasing. [1]	Herbicidal effect grade, B: Scirpus juncoides (Scirpus juncoides)	herbicidal effect on H (Echinochloa crus-galli var. crus-galli), grade 0-5 [2]	herbicidal effect on E, grade 0-5 (Cyperus difformis)	Herbicidal effect grade, G: Setaria viridis (Setaria viridis)	Herbicidal effect grade, J: Alopecurus myosuroides (Alopecurus myosuroides [3])	Herbicidal effect grade, L: Apera spica-venti (Apera spica-venti [4])	Herbicidal effect grade, Q: Galium spurium (Galium spurium)	Effect on crop grade, e: wheat (wheat)	Effect on crop grade, g: rapeseed (rapeseed [5])	F: Digitaria ciliaris, herbicidal effect (criteria of Test Example 1) (Digitaria ciliaris)	J: Alopecurus myosuroides, herbicidal effect (criteria of Test Example 1) (Alopecurus myosuroides [6])	L: Apera spica-venti, herbicidal effect (criteria of Test Example 1) (Apera spica-venti [7])	M: Abutilon theophrasti, herbicidal effect (criteria of Test Example 1) (Abutilon theophrasti)	N: Amaranthus retroflexus, herbicidal effect (criteria of Test Example 1) (Amaranthus retroflexus)	P: Stellaria media, herbicidal effect (criteria of Test Example 1) (Stellaria media)	f: beet, effect on crop (criteria of Test Example 1) (beet)	g: rapeseed, effect on crop (criteria of Test Example 1) (rapeseed [8])	also measured
CC(=O)CC1CC(O)=C(c2c(C)cc(-c3ccc(C)cc3)cc2C)C1=O (stereo not drawn) [7-007]	5 (Herbicidal ratio of 90% or more (almost completely withered))	1 (Herbicidal ratio of 5% or higher and lower than 20%)	5 (Herbicidal ratio of 90% or more (almost completely withered))	4 (Herbicidal ratio of 70% or higher and lower than 90%)	4 (Herbicidal ratio of 70% or higher and lower than 90%)	5 (Herbicidal ratio of 90% or more (almost completely withered))	5 (Herbicidal ratio of 90% or more (almost completely withered))	0 (Herbicidal ratio of 5% or lower (almost no effect))	0 (Herbicidal ratio of 5% or lower (almost no effect))	0 (Herbicidal ratio of 5% or lower (almost no effect))	5 (Herbicidal ratio of 90% or more (almost completely withered))	5 (Herbicidal ratio of 90% or more (almost completely withered))	5 (Herbicidal ratio of 90% or more (almost completely withered))	0 (Herbicidal ratio of 5% or lower (almost no effect))	0 (Herbicidal ratio of 5% or lower (almost no effect))	0 (Herbicidal ratio of 5% or lower (almost no effect))	0 (Herbicidal ratio of 5% or lower (almost no effect))	0 (Herbicidal ratio of 5% or lower (almost no effect))	
CON=C(C)CC1CC(O)=C(c2c(C)cc(-c3ccc(OC(F)(F)F)cc3)cc2C)C1=O (mixture of isomers) [6-056]	3 (Herbicidal ratio of 40% or higher and lower than 70%)	0 (Herbicidal ratio of 5% or lower (almost no effect))	4 (Herbicidal ratio of 70% or higher and lower than 90%)	3 (Herbicidal ratio of 40% or higher and lower than 70%)							5 (Herbicidal ratio of 90% or more (almost completely withered))	3 (Herbicidal ratio of 40% or higher and lower than 70%)	3 (Herbicidal ratio of 40% or higher and lower than 70%)	0 (Herbicidal ratio of 5% or lower (almost no effect))	0 (Herbicidal ratio of 5% or lower (almost no effect))	0 (Herbicidal ratio of 5% or lower (almost no effect))	0 (Herbicidal ratio of 5% or lower (almost no effect))	3 (Herbicidal ratio of 40% or higher and lower than 70%)	G: Setaria viridis, herbicidal effect grade (Setaria viridis): 2 (Herbicidal ratio of 20% or higher and lower than 40%); J: Alopecurus myosuroides, herbicidal effect grade (Alopecurus myosuroides [3]): 0 (Herbicidal ratio of 5% or lower (almost no effect)); L: Apera spica-venti, herbicidal effect grade (Apera spica-venti [4]): 0 (Herbicidal ratio of 5% or lower (almost no effect)); Q: Galium spurium, herbicidal effect grade (Galium spurium): 0 (Herbicidal ratio of 5% or lower (almost no effect)); e: wheat, effect on crop grade (wheat): 0 (Herbicidal ratio of 5% or lower (almost no effect)); g: rapeseed, effect on crop grade (rapeseed [5]): 0 (Herbicidal ratio of 5% or lower (almost no effect))
CC(=O)CC1CC(O)=C(c2c(C)cc(Oc3ccc(C(F)(F)F)cn3)cc2C)C1=O (stereo not drawn) [7-019]	1 (Herbicidal ratio of 5% or higher and lower than 20%)	0 (Herbicidal ratio of 5% or lower (almost no effect))	5 (Herbicidal ratio of 90% or more (almost completely withered))	2 (Herbicidal ratio of 20% or higher and lower than 40%)	2 (Herbicidal ratio of 20% or higher and lower than 40%)	0 (Herbicidal ratio of 5% or lower (almost no effect))	0 (Herbicidal ratio of 5% or lower (almost no effect))	0 (Herbicidal ratio of 5% or lower (almost no effect))	0 (Herbicidal ratio of 5% or lower (almost no effect))	0 (Herbicidal ratio of 5% or lower (almost no effect))	3 (Herbicidal ratio of 40% or higher and lower than 70%)	2 (Herbicidal ratio of 20% or higher and lower than 40%)	3 (Herbicidal ratio of 40% or higher and lower than 70%)	0 (Herbicidal ratio of 5% or lower (almost no effect))	0 (Herbicidal ratio of 5% or lower (almost no effect))	0 (Herbicidal ratio of 5% or lower (almost no effect))	0 (Herbicidal ratio of 5% or lower (almost no effect))	2 (Herbicidal ratio of 20% or higher and lower than 40%)	
CC(=O)CC1CC(O)=C(c2c(C)cc(OCC(F)(F)F)cc2C)C1=O (stereo not drawn) [7-015]	5 (Herbicidal ratio of 90% or more (almost completely withered))	1 (Herbicidal ratio of 5% or higher and lower than 20%)	5 (Herbicidal ratio of 90% or more (almost completely withered))	5 (Herbicidal ratio of 90% or more (almost completely withered))	5 (Herbicidal ratio of 90% or more (almost completely withered))	5 (Herbicidal ratio of 90% or more (almost completely withered))	4 (Herbicidal ratio of 70% or higher and lower than 90%)	0 (Herbicidal ratio of 5% or lower (almost no effect))	4 (Herbicidal ratio of 70% or higher and lower than 90%)	2 (Herbicidal ratio of 20% or higher and lower than 40%)	5 (Herbicidal ratio of 90% or more (almost completely withered))	5 (Herbicidal ratio of 90% or more (almost completely withered))	5 (Herbicidal ratio of 90% or more (almost completely withered))	2 (Herbicidal ratio of 20% or higher and lower than 40%)	0 (Herbicidal ratio of 5% or lower (almost no effect))	1 (Herbicidal ratio of 5% or higher and lower than 20%)	0 (Herbicidal ratio of 5% or lower (almost no effect))	5 (Herbicidal ratio of 90% or more (almost completely withered))	
